Values of other authors as cited in patent US20060052382A1, “3-Amino-4-phenylbutanoic acid derivatives as dipeptidyl peptidase inhibitors for the treatment or prevention of diabetes” (priority 2002, published 2006).

Key:
cardiac allograft = details: rats; Transplantation, 63: 1495-1500 (1997)
hematopoiesis = details: mouse, cyclophosphamide-induced neutropenia; WO 99/56753
DP-IV = target: T1, DP-IV (Homo sapiens, UniProt P27487); details: plasma
T1 construct: GRF is rapidly degraded in plasma to GRF[3-44]
T1 sequence (P27487 39-766 limits assumed): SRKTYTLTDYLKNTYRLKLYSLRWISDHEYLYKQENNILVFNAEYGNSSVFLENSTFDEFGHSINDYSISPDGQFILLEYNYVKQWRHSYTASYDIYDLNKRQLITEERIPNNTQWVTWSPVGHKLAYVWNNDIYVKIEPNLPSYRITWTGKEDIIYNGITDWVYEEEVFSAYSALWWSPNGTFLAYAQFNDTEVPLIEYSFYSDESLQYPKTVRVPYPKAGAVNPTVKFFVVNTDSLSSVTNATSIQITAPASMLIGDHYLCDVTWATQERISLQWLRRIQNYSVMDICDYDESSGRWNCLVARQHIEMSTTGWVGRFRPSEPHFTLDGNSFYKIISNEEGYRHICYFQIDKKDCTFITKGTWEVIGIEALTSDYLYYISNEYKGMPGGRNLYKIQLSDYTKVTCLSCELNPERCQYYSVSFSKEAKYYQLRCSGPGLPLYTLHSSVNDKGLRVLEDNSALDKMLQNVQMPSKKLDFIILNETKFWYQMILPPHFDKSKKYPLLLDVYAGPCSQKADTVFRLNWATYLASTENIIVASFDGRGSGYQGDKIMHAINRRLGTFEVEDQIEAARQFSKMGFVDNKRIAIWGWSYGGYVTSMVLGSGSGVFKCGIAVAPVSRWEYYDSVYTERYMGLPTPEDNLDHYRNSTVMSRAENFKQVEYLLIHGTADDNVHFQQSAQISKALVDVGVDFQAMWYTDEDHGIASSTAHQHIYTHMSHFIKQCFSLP

In the case of CC(C)N1CCC(c2ccccc2)(c2ccccc2)CC1 [Prodipine, Pro-Pro-diphenyl-phosphonate], the cardiac allograft survival (cardiac allograft) is listed as “double cardiac allograft survival in rats from day 7 to day 14”.
In the case of CC(C)[C@H](N)C(=O)N1CCC[C@H]1B(O)O [Val-Boro-Pro], the stimulation of hematopoiesis (hematopoiesis) is listed as “stimulated hematopoiesis”.
In the case of diprotin A, the “prevention of GRF degradation to GRF[3-44]” value (DP-IV) is listed as “prevented”.
